According to patent US20230105212A1, “BIPHENYL DERIVATIVE INHIBITOR, PREPARATION METHOD THEREFOR AND USE THEREOF” (SHANGHAI HANSOH BIOMEDICAL CO., LTD., priority 2020, published 2023):

biological target: T1, human PD-1/PD-L1 binding (Homo sapiens, UniProt Q9NZQ7); assay: Inhibition of human PD-1/PD-L1 binding (TR-FRET/HTRF); settings: TR-FRET, PD-L1-His and PD-1-Fc; read-out: PD-1/PD-L1 binding IC50
T1 construct: PD-L1-His protein (19 to 238 amino acids) (Abcam #ab167713); purchased Abcam (PD-L1-His); R&D (PD-1-Fc) ab167713; 1086-PD
T1 sequence (Q9NZQ7 19-238): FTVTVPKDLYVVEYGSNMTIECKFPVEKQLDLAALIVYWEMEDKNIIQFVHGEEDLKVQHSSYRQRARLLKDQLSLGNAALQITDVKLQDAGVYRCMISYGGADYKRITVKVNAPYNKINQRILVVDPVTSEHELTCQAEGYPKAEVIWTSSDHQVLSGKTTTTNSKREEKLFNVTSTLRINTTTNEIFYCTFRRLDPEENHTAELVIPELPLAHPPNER
Source text: Test Embodiment 1: Test of Inhibitory Effect of the Compounds of the Present Disclosure on Human PD-1/PD-L1 Binding
Experimental purpose: The purpose of this test embodiment was to measure the inhibitory activity of the compounds on human PD-1/PD-L1 binding.
Experimental reagents: Binding Domain diluent buffer was purchased from Cisbio Company, Cat. No.: 62DLBDDF; MAb Anti-6HIS Eu cryptate Gold was purchased from Cisbio Company with the article number of 61HI2KLA; PAb Anti Human IgG-XL665 was purchased from Cisbio Company with the article number of 61HFCXLB; PD-L1-His protein was purchased from Abcam Company with the article number of ab167713; PD-1-Fc protein was purchased from R&D Company with the article number of 1086-PD; Detection buffer was purchased from Cisbio Company with the article number of 62SDBRDD; 384-well plate was purchased from PerkinElmer Company with the article number of 6007290.
Experimental method: In order to test the inhibitory activity of the compounds on human PD-1/PD-L1 binding, the method of time-resolved fluorescence resonance energy transfer (TR-FRET) was used in this experiment to test the inhibition of the compounds on human PD-1/PD-L1 binding, and the half inhibitory concentration IC50 of inhibitory activity of the compounds on human PD-1/PD-L1 binding was obtained.
This experiment was performed in a 384-well plate with a total reaction volume of 20 μL. Compounds were diluted to different concentrations (10 μM or 1 μM starting, 3-fold dilution, 11 doses) using assay buffer Binding Domain diluent buffer (Cisbio #62DLBDDF), then PD-L1-His protein (19 to 238 amino acids) (Abcam #ab167713) was diluted to 10 nM with assay buffer, and PD-1-Fc protein (25 to 167 amino acids) (R&D #1086-PD) was diluted to 20 nM with assay buffer; the compound, PD-L1 protein and PD-1 protein were added to a 384-well plate respectively, and the total volume was 10 μL, then centrifuged at 1000 rpm for 1 minute to mix well, and incubated for 60 minutes at room temperature. Then 10 μL of a mixed solution of MAb Anti-6HIS Eu cryptate Gold (Cisbio #61HI2KLA) and PAb Anti Human IgG-XL665 (Cisbio #61HFCXLB) diluted by HTRF Detection buffer was added to each well, and centrifuged at 1000 rpm for 1 minute to mix well. The reaction was carried out at room temperature for 3 hours or at 4° C. overnight, then a microplate reader (BioTek Synergy H1) was put into for reading; the excitation wavelength was 340 nm, and the emission wavelengths were 620 nm and 665 nm.
The ratio of fluorescence readings at 620 nm and 665 nm (665 nm/620 nm) was calculated, and the inhibition rate was calculated.

Row | SMILES | IC50
1 | COc1cc(NCc2cnc(C(=O)Nc3cccc(-c4cccc(NC(=O)c5nc6c(n5C)CCN(CC5CC5)C6)c4Cl)c3Cl)cc2OC)ccn1 [Embodiment 83, 5-(Cyclopropylmethyl)-N-(2,2′-dichloro-3′-(4-methoxy-5-(((2-methoxypyridin-4-yl)amino)methyl)picolinamido)-[1,1′-biphenyl]-3-yl)-1-methyl-4,5,6,7-tetrahydro-1H-imidazo[4,5-c]pyridine-2-carboxamide] | 2.7 nM
2 | COc1cc(CN[C@@H]2CCOC[C@@H]2F)cnc1C(=O)Nc1cccc(-c2cccc(NC(=O)c3nc4c(n3C)CCN(C)C4)c2Cl)c1C [Embodiment 109, N-(2-Chloro-3′-(5-((((3R,4R)-3-fluorotetrahydro-2H-pyran-4-yl)amino)methyl)-3-methoxypicolinamido)-2′-methyl-[1,1′-biphenyl]-3-yl)-1,5-dimethyl-4,5,6,7-tetrahydro-1H-imidazo[4,5-c]pyridine-2-carboxamide] | 4.7 nM
3 | COc1cc(C(=O)Nc2cccc(-c3cccc(NC(=O)c4nc5c(n4C)CCN(C)C5)c3Cl)c2C)ncc1CNC1CN(C(C)=O)C1 [Embodiment 100, N-(3′-(5-(((1-Acetylazetidin-3-yl)amino)methyl)-4-methoxypicolinamido)-2-chloro-2′-methyl-[1,1′-biphenyl]-3-yl)-1,5-dimethyl-4,5,6,7-tetrahydro-1H-imidazo[4,5-c]pyridine-2-carboxamide] | 6 nM
4 | Cc1nccc(NCc2ccc(C(=O)Nc3cccc(-c4cccc(NC(=O)c5nc6c(n5C)CCN(C)C6)c4Cl)c3C)nc2)c1F [Embodiment 105, N-(2-Chloro-3′-(5-(((3-fluoro-2-methylpyridin-4-yl)amino)methyl)picolinamido)-2′-methyl-[1,1′-biphenyl]-3-yl)-1,5-dimethyl-4,5,6,7-tetrahydro-1H-imidazo[4,5-c]pyridine-2-carboxamide] | 8.5 nM
5 | COc1cc(CN2CC(F)C2)cnc1C(=O)Nc1cccc(-c2cccc(NC(=O)c3nc4c(n3C)CCN(C)C4)c2Cl)c1C [Embodiment 108, N-(2-Chloro-3′-(5-((3-fluoroazetidin-1-yl)methyl)-3-methoxypicolinamido)-2′-methyl-[1,1′-biphenyl]-3-yl)-1,5-dimethyl-4,5,6,7-tetrahydro-1H-imidazo[4,5-c]pyridine-2-carboxamide] | 8.4 nM
6 | COc1cc(-c2cccc(-c3cccc(NC(=O)c4nc5c(n4C)CCN(C)C5)c3Cl)c2C)ncc1CN1CC[C@@H](F)C1 [Embodiment 60, (R)—N-(2-Chloro-3′-(5-((3-fluoropyrrolidin-1-yl)methyl)-4-methoxypyridin-2-yl)-2′-methyl-[1,1′-biphenyl]-3-yl)-1,5-dimethyl-4,5,6,7-tetrahydro-1H-imidazo[4,5-c]pyridine-2-carboxamide] | 6.9 nM
7 | COc1cc(C(=O)Nc2cccc(-c3cccc(NC(=O)c4nc5c(n4C)CCN(C)C5)c3Cl)c2C)ncc1CN[C@@H]1CCNC1=O [Embodiment 97, (R)—N-(2-Chloro-3′-(4-methoxy-5-(((2-carbonylpyrrolidin-3-yl)amino)methyl)picolinamido)-2′-methyl-[1,1′-biphenyl]-3-yl)-1,5-dimethyl-4,5,6,7-tetrahydro-1H-imidazo[4,5-c]pyridine-2-carboxamide] | 5 nM
8 | CCN1CCc2c(nc(C(=O)Nc3cccc(-c4cccc(NC(=O)c5cc(OC)c(CO)cn5)c4C)c3Cl)n2C)C1 [Embodiment 88, N-(2-Chloro-3′-(5-(hydroxymethyl)-4-methoxypicolinamido)-2′-methyl-[1,1′-biphenyl]-3-yl)-5-ethyl-1-methyl-4,5,6,7-tetrahydro-1H-imidazo[4,5-c]pyridine-2-carboxamide] | 9 nM
9 | COc1cc(C(=O)Nc2cccc(-c3cccc(NC(=O)c4nc5c(n4C)CCN(C)C5)c3Cl)c2C)ncc1C(C)(C)O [Embodiment 50, N-(2-Chloro-3′-(5-(2-hydroxypropan-2-yl)-4-methoxypicolinamido)-2′-methyl-[1,1′-biphenyl]-3-yl)-1,5-dimethyl-4,5,6,7-tetrahydro-1H-imidazo[4,5-c]pyridine-2-carboxamide] | 9 nM
